Laboratory results published in patent publication US20080171783A1, “COMPOSITIONS AND METHODS FOR TREATING HYPERPROLIFERATIVE DISEASE” (Migenix Inc., priority 2006, published 2008).

Tests used:
Assay in all cases: NCI In Vitro Cell Line Screening (SRB)
SNB-19 = format: cell-based, human; settings: SNB-19, CNS Cancer, 48 h
SK-MEL-28 = format: cell-based, human; settings: SK-MEL-28, Melanoma, 48 h; for GI50 / CC50: Homo sapiens; for CC50: read-out: LC50 (the source's name)
DU-145 = format: cell-based, human; settings: DU-145, Prostate Cancer, 48 h; for GI50 / CC50: Homo sapiens; for CC50: read-out: LC50 (the source's name)
CAKI-1 = format: cell-based, human; settings: CAKI-1, Renal Cancer, 48 h; for GI50 / CC50: Homo sapiens; for CC50: read-out: LC50 (the source's name)
HCC-2998 = format: cell-based; settings: HCC-2998, Colon Cancer, 48 h; for GI50 / LC50 (lethal concentration, 50% cell kill): Homo sapiens
SF-295 = format: cell-based, human; settings: SF-295, CNS Cancer, 48 h; for GI50 / CC50: Homo sapiens; for CC50: read-out: LC50 (the source's name)
A549/ATCC = format: cell-based; settings: Non-Small Cell Lung Cancer, 48 h; for GI50 / CC50: Homo sapiens; for CC50: read-out: LC50 (the source's name)
HOP-92 = format: cell-based, human; settings: HOP-92, Non-Small Cell Lung Cancer, 48 h; for GI50 / CC50: Homo sapiens; for CC50: read-out: LC50 (the source's name)
SN12C = format: cell-based, human; settings: Renal Cancer, 48 h; for GI50 / CC50: Homo sapiens; for CC50: read-out: LC50 (the source's name)
OVCAR-5 = format: cell-based, human; settings: OVCAR-5, Ovarian Cancer, 48 h; for GI50 / CC50: Homo sapiens; for CC50: read-out: LC50 (the source's name)
MALME-3M = format: cell-based, human; settings: Melanoma, 48 h; for GI50 / CC50: Homo sapiens; for CC50: read-out: LC50 (the source's name)
SNB-75 = format: cell-based, human; settings: SNB-75, CNS Cancer, 48 h; for GI50 / CC50: Homo sapiens; for CC50: read-out: LC50 (the source's name)
HCT-15 = format: cell-based, human; settings: HCT-15, Colon Cancer, 48 h; for GI50 / CC50: Homo sapiens; for CC50: read-out: LC50 (the source's name)
HT29 = format: cell-based; settings: HT29, Colon Cancer, 48 h; for GI50 / CC50: Homo sapiens, HT-29; for CC50: read-out: LC50 (the source's name)
K-562 = format: cell-based; settings: K-562, Leukemia, 48 h
HS 578T = format: cell-based, human; settings: Breast Cancer, 48 h; for GI50 / CC50: Homo sapiens; for CC50: read-out: LC50 (the source's name)
A498 = format: cell-based, human; settings: A498, Renal Cancer, 48 h; for GI50 / CC50: Homo sapiens; for CC50: read-out: LC50 (the source's name)
NCI/ADR-RES = format: cell-based, human; settings: Breast Cancer, 48 h; for GI50 / CC50: Homo sapiens; for CC50: read-out: LC50 (the source's name)
MDA-MB-435 = format: cell-based, human; settings: MDA-MB-435, Breast Cancer, 48 h; for GI50 / CC50: Homo sapiens; for CC50: read-out: LC50 (the source's name)
LOX IMVI = format: cell-based, human; settings: Melanoma, 48 h; for GI50 / LC50: Homo sapiens
SK-MEL-5 = format: cell-based, human; settings: SK-MEL-5, Melanoma, 48 h
MOLT-4 = format: cell-based, human; settings: MOLT-4, Leukemia, 48 h
786-0 = format: cell-based, human; settings: 786-0, Renal Cancer, 48 h; for GI50 / CC50: Homo sapiens; for CC50: read-out: LC50 (the source's name)
[1] = Homo sapiens, read-out: LC50 (the source's name)

## Cc1ccc(NC(=O)[C@@H](CCCCN)NC(=O)Nc2ccc3c(c2)Cc2ccccc2-3)cc1 [Compound 173, (R)-6-AMINO-2-[3-(9H-FLUOREN-2-YL)-UREIDO]-HEXANOIC ACID P-TOLYLAMIDE]
SNB-19; Homo sapiens
  GI50: 1.59 µM
SNB-19
  TGI: 3.21 µM
SK-MEL-28
  GI50: 1.43 µM
  CC50: 5.43 µM
  TGI: 2.79 µM
DU-145
  TGI: 20.0 µM
  GI50: 6.94 µM
  CC50: 46.3 µM
CAKI-1
  TGI: 34.0 µM
  GI50: 0.135 µM
  CC50: > 100 µM
HCC-2998
  TGI: 4.88 µM
  GI50: 2.22 µM
  LC50 (lethal concentration, 50% cell kill): 17.5 µM
SF-295
  GI50: 0.341 µM
  CC50: 5.17 µM
  TGI: 2.07 µM
A549/ATCC
  GI50: 1.55 µM
  CC50: 7.66 µM
  TGI: 3.45 µM
HOP-92
  TGI: 5.13 µM
  GI50: 1.37 µM
  CC50: 38.5 µM
SN12C
  GI50: 1.17 µM
  CC50: 5 µM
  TGI: 2.41 µM
OVCAR-5
  GI50: 1.92 µM
  CC50: 6.57 µM
  TGI: 3.55 µM
MALME-3M
  GI50: 1.55 µM
  CC50: 8.23 µM
  TGI: 3.57 µM
SNB-75
  GI50: 1.61 µM
  CC50: > 100 µM
  TGI: 4.65 µM
HCT-15
  TGI: 87.8 µM
  GI50: 23.9 µM
  CC50: > 100 µM
HT29
  TGI: >100 µM
  GI50: 3.64 µM
  CC50: > 100 µM
K-562; Homo sapiens, K562
  GI50: 1.67 µM
K-562; Homo sapiens, K562, read-out: LC50 (the source's name)
  CC50: > 100 µM
HS 578T
  TGI: 4.77 µM
  GI50: 1.64 µM
  CC50: 32.7 µM
A498
  TGI: 8.26 µM
  GI50: 1.99 µM
  CC50: 37.9 µM
NCI/ADR-RES
  TGI: >100 µM
  GI50: > 100 µM
  CC50: > 100 µM
MDA-MB-435
  GI50: 1.98 µM
  CC50: 24.3 µM
  TGI: 6.21 µM
LOX IMVI
  GI50: 1.4 µM
  LC50: 5.2 µM
  TGI: 2.70 µM
SK-MEL-5; Homo sapiens
  GI50: 1.03 µM
SK-MEL-5; [1]
  CC50: 68.3 µM
SK-MEL-5
  TGI: 26.5 µM
MOLT-4; Homo sapiens
  GI50: 1.93 µM
MOLT-4; [1]
  CC50: 17.5 µM
MOLT-4
  TGI: 4.43 µM
786-0
  TGI: 11.1 µM
  GI50: 3.42 µM
  CC50: 91.1 µM

## CC(C)(C)c1ccc(NC(=O)[C@H](CCCCN)NC(=O)OCC2c3ccccc3-c3ccccc32)cc1 [Compound 105, (S)-[5-AMINO-1-(4-TERT-BUTYL-PHENYLCARBAMOYL)-PENTYL]-CARBAMIC ACID 9H-FLUOREN-9-YLMETHYL ESTER]
SNB-19; Homo sapiens
  GI50: 1.6 µM
SNB-19; [1]
  CC50: 5.68 µM
SNB-19
  TGI: 3.01 µM
SK-MEL-28
  GI50: 12.3 µM
  CC50: 50.2 µM
  TGI: 24.8 µM
DU-145
  TGI: 31.2 µM
  GI50: 15.8 µM
  CC50: 61.6 µM
CAKI-1
  TGI: 43.9 µM
  GI50: 19.8 µM
  CC50: 97.2 µM
HCC-2998
  TGI: 2.88 µM
  GI50: 1.39 µM
  LC50 (lethal concentration, 50% cell kill): 5.96 µM
SF-295
  GI50: 3.74 µM
  CC50: 65.3 µM
  TGI: 19.0 µM
A549/ATCC
  GI50: 1.77 µM
  CC50: > 100 µM
  TGI: 23.5 µM
HOP-92
  TGI: 3.08 µM
  GI50: 1.34 µM
  CC50: 7.1 µM
SN12C
  GI50: 13.8 µM
  CC50: 62.9 µM
  TGI: 29.5 µM
OVCAR-5
  GI50: 1.85 µM
  CC50: 6.5 µM
  TGI: 3.46 µM
MALME-3M
  GI50: 15.6 µM
  CC50: 89.5 µM
  TGI: 37.4 µM
SNB-75
  GI50: 1.29 µM
  CC50: 5.97 µM
  TGI: 2.78 µM
HCT-15
  TGI: 24.4 µM
  GI50: 11.1 µM
  CC50: 53.9 µM
HT29
  GI50: 0.733 µM
  CC50: > 100 µM
K-562; Homo sapiens, K562
  GI50: 1.39 µM
K-562
  TGI: 3.32 µM
HS 578T
  TGI: 16.7 µM
  GI50: 2.93 µM
  CC50: 48.7 µM
A498
  TGI: 0.665 µM
  GI50: 0.116 µM
  CC50: 15.5 µM
NCI/ADR-RES
  TGI: 1.1 µM
  GI50: < 0.01 µM
  CC50: 30.5 µM
MDA-MB-435
  GI50: 4.27 µM
  CC50: 87.1 µM
  TGI: 21.7 µM
LOX IMVI
  GI50: 1.81 µM
  LC50: 6.42 µM
  TGI: 3.41 µM
SK-MEL-5; Homo sapiens
  GI50: 1.54 µM
SK-MEL-5
  TGI: 2.94 µM
MOLT-4; Homo sapiens
  GI50: 1.66 µM
MOLT-4
  TGI: 3.42 µM
786-0
  TGI: 2.66 µM
  GI50: 1.33 µM
  CC50: 5.3 µM
